This note sets out measurements from patent publication US20200407393A1, “Medical Use” (priority 2018, published 2020).

SMILES strings stand for the structures. Read-outs that look alike come from different tables or passages of the source.

The test system of assay [1] is WT pseudotyped virus (NL4-3 provirus with HIV gp160 envelope) in U373 cells. In words: PSV assay (pseudotyped virus assay), WT. As to conditions: Human immunodeficiency virus 1, NL43, U373 MG, read-out: WT IC50.
Source text: A pseudotyped virus assay (PSV) was used to assess the potency of the compounds. Replication defective virus was produced by co-transfection of a plasmid containing an NL4-3 provirus [containing a mutation in the envelope open reading frame (ORF) and a luciferase reporter gene replacing the nef ORF] and a CMV-promoter expression plasmid containing an ORF for various HIV gp160 envelope clones. The harvested virus was stored at −80 C in small aliquots and the titer of the virus measured to produce a robust signal for antiviral assays.
The PSV assay was performed by using U373 cells stably transformed to express human CD4, the primary receptor for HIV entry and either human CXCR4 or human CCR5 which are the co-receptors required for HIV entry as target cells for infection. […] This dose-range was applied to U373 cells and the pre-made pseudotyped virus added. The amount of luciferase signal produced after 3 days of culture was used to reflect the level of pseudotyped virus infection. […] IC50 values were determined from a 10 point dose response curve using 3-4-fold serial dilution for each compound, which spans a concentration range>1000 fold.
These values are plotted against the molar compound concentrations using the standard four parameter logistic equation:
y=((Vmax*x^n)/(K^n+x^n))+Y2 • where: • Y2=minimum y n=slope factor • Vmax=maximum y x=compound concentration [M] • K=EC50
The test system of assay [2] is M184V pseudotyped virus in U373 cells. The assay is classed as cell-based, HIV.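 Note: reported value is IC50.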
Setting [3] is: Table 4, luciferase signal after 3 days of culture.
[4] abbreviates: Table 5, mean of a greater number of data replicates.

The IC50 is the concentration that inhibits the measured activity by half.

As for `C#C[C@]1(COC(=O)CCCCCC)O[C@@H](n2cnc3c(N)nc(F)nc32)C[C@@H]1O` [Example 2, ((2R,3S,5R)-5-(6-amino-2-fluoro-9H-purin-9-yl)-2-ethynyl-3-hydroxytetrahydrofuran-2-yl)methyl heptanoate], the half-maximal inhibitory concentration (IC50) in assay [1] (72 h) is 3 nM; in assay [1] it was 3 nM; in assay [2] (setting [3]), 12 nM; in assay [2] (setting [4]), 15 nM.

For `C#C[C@]1(COC(=O)CCCCCCCCC)O[C@@H](n2cnc3c(N)nc(F)nc32)C[C@@H]1O` [Example 3, ((2R,3S,5R)-5-(6-amino-2-fluoro-9H-purin-9-yl)-2-ethynyl-3-hydroxytetrahydrofuran-2-yl)methyl decanoate], the IC50 in assay [1] (72 h) amounted to 2 nM; in assay [1], 3 nM; in assay [2] (setting [3]) it was 15 nM; in assay [2] (setting [4]), 14 nM.

Regarding `C#C[C@]1(COC(C)=O)O[C@@H](n2cnc3c(N)nc(F)nc32)C[C@@H]1O` [Example 7, ((2R,3S,5R)-5-(6-amino-2-fluoro-9H-purin-9-yl)-2-ethynyl-3-hydroxytetrahydrofuran-2-yl)methyl acetate], the IC50 in assay [1] came to 14 nM; in assay [2] (setting [4]), 55 nM.

For `C#C[C@]1(COC(=O)CC)O[C@@H](n2cnc3c(N)nc(F)nc32)C[C@@H]1O` [Example 8, ((2R,3S,5R)-5-(6-amino-2-fluoro-9H-purin-9-yl)-2-ethynyl-3-hydroxytetrahydrofuran-2-yl)methyl propionate], the IC50 is 8 nM in assay [1] and 39 nM in assay [2] (setting [4]).

In the case of `C#C[C@]1(COC(=O)CCC)O[C@@H](n2cnc3c(N)nc(F)nc32)C[C@@H]1O` [Example 9, ((2R,3S,5R)-5-(6-amino-2-fluoro-9H-purin-9-yl)-2-ethynyl-3-hydroxytetrahydrofuran-2-yl)methyl butyrate], the IC50 in assay [1] amounted to 5 nM; in assay [2] (setting [4]), 26 nM.

On to `C#C[C@]1(COC(=O)CCCC)O[C@@H](n2cnc3c(N)nc(F)nc32)C[C@@H]1O` [Example 10, ((2R,3S,5R)-5-(6-amino-2-fluoro-9H-purin-9-yl)-2-ethynyl-3-hydroxytetrahydrofuran-2-yl)methyl pentanoate], for which the IC50 in assay [1] stood at 3 nM; in assay [2] (setting [4]), 19 nM.

With `C#C[C@]1(COC(=O)CCCCCCCC)O[C@@H](n2cnc3c(N)nc(F)nc32)C[C@@H]1O` [Example 11, ((2R,3S,5R)-5-(6-amino-2-fluoro-9H-purin-9-yl)-2-ethynyl-3-hydroxytetrahydrofuran-2-yl)methyl nonanoate], the results for the IC50 in assay [1] and in assay [2] (setting [4]) were 3 nM and 13 nM, respectively.

As for `C#C[C@]1(COC(=O)CCCCCCCCCC)O[C@@H](n2cnc3c(N)nc(F)nc32)C[C@@H]1O` [Example 12, ((2R,3S,5R)-5-(6-amino-2-fluoro-9H-purin-9-yl)-2-ethynyl-3-hydroxytetrahydrofuran-2-yl)methyl undecanoate], the IC50 in assay [1] came out at 2 nM; in assay [2] (setting [4]), 9 nM.

On to `C#C[C@]1(COC(=O)CCCCCCCCCCCC)O[C@@H](n2cnc3c(N)nc(F)nc32)C[C@@H]1O` [Example 13, ((2R,3S,5R)-5-(6-amino-2-fluoro-9H-purin-9-yl)-2-ethynyl-3-hydroxytetrahydrofuran-2-yl)methyl tridecanoate], for which the figures for the IC50 in assay [1] and in assay [2] (setting [4]) were 2 nM and 12 nM, respectively.

Turning to `C#C[C@]1(COC(=O)CCCCCCCCCCCCCC)O[C@@H](n2cnc3c(N)nc(F)nc32)C[C@@H]1O` [Example 14, ((2R,3S,5R)-5-(6-amino-2-fluoro-9H-purin-9-yl)-2-ethynyl-3-hydroxytetrahydrofuran-2-yl)methyl pentadecanoate], the half-inhibitory concentration (IC50) in assay [1] was 2 nM; in assay [2] (setting [4]), 11 nM.

For the compound `C#C[C@]1(COC(=O)CCCCCCCCCCCCCCCC)O[C@@H](n2cnc3c(N)nc(F)nc32)C[C@@H]1O` [Example 15, ((2R,3S,5R)-5-(6-amino-2-fluoro-9H-purin-9-yl)-2-ethynyl-3-hydroxytetrahydrofuran-2-yl)methyl heptadecanoate], the IC50 in assay [1] is 4 nM; in assay [2] (setting [4]) it was 26 nM.
